The values that follow are results of earlier work, collected in article PMC2853223 (ACS chemical biology, 2009).

This data set deals with DEBS 3. To be noted: mismatched PikAII/DEBS 3 pairing.

Take “PiKAII: pikromycin PKS protein PikAII, paired with DEBS 3 in vivo”: the “association and transfer with DEBS 3 in vivo” value is “productive association and transfer”.
